Where two headings read alike, the source gives them in different places.
Assays:
[1] = DSC enthalpy of fusion of fasoracetam forms; format: physicochemical
Protocol: DSC measurements were performed on a DSC 821 METTLER TOLEDO under continuous nitrogen flow. Perforated aluminium crucibles were used for analysis. Onsets were determined by manually constructing a tangent to the peak and a prolongation of the baseline. Total enthalpies were calculated by manual peak integration using a linear interpolation between the initial and final temperatures of integration. To obtain the normalized enthalpy, the total enthalpy was divided by the total sample mass. Ramp rates were typically done at 5° C./minute Using Burger's Heat of Fusion rule for both hydrated forms (Table 6), they should be monotropically related. Because both hydrates were obtained from different solvents (water and methanol for Forms I and II, respectively), a slurrying experiment where both vials were seeded with the opposite hydrate was performed and left under these conditions for 1 week.

[2] = format: physicochemical; settings: for first onset of weight loss / weight loss continues up to / water loss (initial weight loss): TGA; for first onset of weight loss / weight loss continues up to: nitrogen flow; for water loss (initial weight loss): equivalents of water
Protocol: TGA measurements were carried out on a METTLER TOLEDO TGA/SDTA 851e. Samples were placed in open aluminum oxide crucible. All experiments were performed under nitrogen flow.
A thermal analysis of all forms was performed in order to characterize the fasoracetam forms and to identify the stability of different forms. TGA measurements (FIG. 21) clearly mark the difference between the hydrated and anhydrated form. […] The weight loss continues up to 185° C. When the temperature is increased further, degradation occurs, starting around 260° C. The initial loss corresponds to 1.1 equivalent of water, as expected for a 1:1 stoichiometric hydrate. The slight deviation from the ideal stoichiometric ratio can be attributed to the crystallization conditions (the bulk material was obtained from an aqueous solution and the water remaining on the crystal surface or trapped between crystals is likely to cause the deviation observed). […] Analogous to Form I, degradation occurs which starts around 268° C. The observed water loss here is 0.9 equivalent, which is expected for a stoichiometric hydrate.

[3] = Slurrying experiment of both hydrates seeded with the opposite hydrate, XRPD analysis; format: physicochemical; settings: water and methanol slurries seeded with the opposite hydrate, 1 week
Protocol: Using Burger's Heat of Fusion rule for both hydrated forms (Table 6), they should be monotropically related. Because both hydrates were obtained from different solvents (water and methanol for Forms I and II, respectively), a slurrying experiment where both vials were seeded with the opposite hydrate was performed and left under these conditions for 1 week.

[4] = Hygroscopicity of the solid form; format: physicochemical
Protocol: In further embodiments of the disclosure, R-fasoracetam anhydrate is provided. […] This lack of water of crystallization is a characterizing feature of the anhydrate of R-fasoracetam with respect to Form I or Form II. FIG. 13 is an XRPD pattern of the anhydrate and any one or more of the peaks in that XRPD pattern may be used to characterize the anhydrate. Thus, one or more peaks at about 8.9°2θ, about 13.1°2θ, about 15.2°2θ, about 17.8°2θ, about 18.7°2θ, about 20.3°2θ, and about 22.7°2⊖ may be used to characterize the anhydrate form of R-fasoracetam. The anhydrate has an onset melting temperature at about 94° C. Thus, in another embodiment, an onset melting point of about 94° C. together with one or more peaks at about 8.9°2θ, about 13.1°2θ, about 15.2°2θ, about 17.8°2θ, about 18.7°2θ, about 20.3°2θ, and about 22.7°2⊖ may be used to characterize R-fasoracetam anhydrate. R-fasoracetam anhydrate may be further characterized by a diffraction pattern substantially the same as that of FIG. 13. A DSC thermogram of R-fasoracetam anhydrate appears in FIG. 25. The ramp rate was at 10° C. per minute. The R-fasoracetam anhydrate being hygroscopic, the sample in FIG. 25 was obtained by keeping R-fasoracetam monohydrate Form I under vacuum for a prolonged period at a temperature of 65° C.

[5] = Storage of the anhydrate at ambient conditions, conversion tracked daily via XRPD; format: physicochemical; settings: 1-week period
[6] = cited from earlier work
mGluRs = settings: in vitro; cited from earlier work

Row | Enthalpy of Fusion (ΔHfus, J/g) ([1]; listed as Fasoracetam hydrate I) [J/g] | degradation starts [2] | first onset of weight loss [2] | weight loss continues up to [2] [°C] | water loss (initial weight loss) [2] [equivalent] | Enthalpy of Fusion (ΔHfus, J/g) ([1]; listed as Fasoracetam hydrate II) [J/g] | Enthalpy of Fusion (ΔHfus, J/g) [1] [J/g] | hygroscopicity [4] | Compound | solid form stability in slurry [3] | conversion of solid form on storage [5] | treatment of further disorders ([6]; subjects having ADHD and 22q11.2 Deletion Syndrome, anxiety, conduct disorder, Tourette's syndrome) | treatment of ADHD ([6]; subjects having a genetic alteration in an mGluR network gene, clinical trial) | activity against mGluRs (mGluRs)
1 | -120.9 | around 260 °C | 41 °C | 185 | 1.1 | – | – | – | O=C1CC[C@H](C(=O)N2CCCCC2)N1 [Form I, R-fasoracetam monohydrate Form I, reference compound] | – | – | – | – | –
2 | – | around 268 °C | 41 °C | 183 | 0.9 | -79.0 | – | – | O=C1CC[C@H](C(=O)N2CCCCC2)N1 [Form II, R-fasoracetam monohydrate Form II] | complete solution mediated polymorphic transition from Form II to Form I | – | – | – | –
3 | – | – | – | – | – | – | – | – | O=C1CC[C@H](C(=O)N2CCCCC2)N1 [fasoracetam, R-fasoracetam] | – | – | successful | successfully treated | nonselective activator against all classes of mGluRs

Row | Compound | Enthalpy of Fusion (ΔHfus, J/g) ([1]; listed as Fasoracetam hydrate I) [J/g] | degradation starts [2] | first onset of weight loss [2] | weight loss continues up to [2] [°C] | water loss (initial weight loss) [2] [equivalent] | Enthalpy of Fusion (ΔHfus, J/g) ([1]; listed as Fasoracetam hydrate II) [J/g] | Enthalpy of Fusion (ΔHfus, J/g) [1] [J/g] | hygroscopicity [4] | solid form stability in slurry [3] | conversion of solid form on storage [5] | treatment of further disorders ([6]; subjects having ADHD and 22q11.2 Deletion Syndrome, anxiety, conduct disorder, Tourette's syndrome) | treatment of ADHD ([6]; subjects having a genetic alteration in an mGluR network gene, clinical trial) | activity against mGluRs (mGluRs)
4 | O=C1CC[C@H](C(=O)N2CCCCC2)N1 [anhydrate, R-fasoracetam anhydrate] | – | around 260 °C | no particular weight loss up until degradation | – | – | – | -76.7 | hygroscopic | – | conversion to the stable hydrate occurs at ambient conditions over a 1-week period | – | – | –
